# Biological target: OppA (main ectoATPase of M. hominis PG21) (Metamycoplasma hominis, UniProt D1J7T8)
# Settings: intact cells of parental strain PG21 (whole-cell ectoATPase activity, other ATPases not excluded); pH 7.5, 37 °C, 4 h, 0-3 mM ATP
# OppA (main ectoATPase of M. hominis PG21), sequence (D1J7T8 entry or part of it): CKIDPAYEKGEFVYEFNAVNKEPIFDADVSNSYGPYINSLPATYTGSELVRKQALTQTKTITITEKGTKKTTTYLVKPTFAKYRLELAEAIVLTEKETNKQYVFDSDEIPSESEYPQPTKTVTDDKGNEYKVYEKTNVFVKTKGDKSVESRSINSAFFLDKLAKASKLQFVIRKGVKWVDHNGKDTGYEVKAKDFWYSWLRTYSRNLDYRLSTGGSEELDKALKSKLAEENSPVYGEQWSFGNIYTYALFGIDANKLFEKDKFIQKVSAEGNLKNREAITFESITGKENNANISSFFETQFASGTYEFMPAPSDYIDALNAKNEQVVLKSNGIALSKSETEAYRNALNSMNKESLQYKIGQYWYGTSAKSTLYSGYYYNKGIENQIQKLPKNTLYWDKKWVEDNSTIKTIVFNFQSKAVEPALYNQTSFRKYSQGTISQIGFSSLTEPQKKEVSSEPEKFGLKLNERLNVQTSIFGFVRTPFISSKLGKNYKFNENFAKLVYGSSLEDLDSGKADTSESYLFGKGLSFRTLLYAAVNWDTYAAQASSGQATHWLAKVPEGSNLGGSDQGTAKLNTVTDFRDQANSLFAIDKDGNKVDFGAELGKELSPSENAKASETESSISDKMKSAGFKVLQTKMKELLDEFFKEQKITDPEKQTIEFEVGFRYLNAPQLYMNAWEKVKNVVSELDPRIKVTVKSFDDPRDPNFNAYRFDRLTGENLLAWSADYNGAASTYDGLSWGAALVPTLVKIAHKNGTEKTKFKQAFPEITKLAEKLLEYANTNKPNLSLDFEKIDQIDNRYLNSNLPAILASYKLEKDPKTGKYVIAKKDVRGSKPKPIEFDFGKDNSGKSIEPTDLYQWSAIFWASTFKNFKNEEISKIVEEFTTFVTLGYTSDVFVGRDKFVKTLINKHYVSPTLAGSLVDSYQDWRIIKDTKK
structure (smiles),measurement,value
Nc1ncnc2c1ncn2[C@@H]1O[C@H](COP(=O)(O)OP(=O)(O)OP(=O)(O)O)[C@@H](O)[C@H]1O [ATP],Km,the parental PG21 strain were tested for ATPase activity
